According to patent US20030153081A1, “Viral core protein-cationic lipid-nucleic acid-delivery complexes” (priority 1999, published 2003):

Experiments:
ND7 cells [1] = assay: X-gal staining, cationic lipid variations in ND7 cells; format: cell-based, rat/mouse; conditions: ND7, Liposome:DNA 3:1 w/w
Procedure: We determined whether LMD complexes could be bettered by incorporating poly cationic cholesterol lipids (WO 97/45442). CDAN (B198), ACHx (CJE52) and CTAP (B232) (FIG. 9) were used to make cationic liposomes in place of DC-Chol. Each cationic liposome system used was composed of 60 mol % of cationic lipid and 40 mol % of DOPE and prepared as described in Example 4. The following different LMD complex systems were prepared and compared: LMD(DC-Chol), LMD(B198), LMD(CJE52), and LMD(B232). All LMD systems were prepared with cationic liposomes (total lipid 20 μmol) and 0.6 mg of Mu1 peptide per 1.0 mg of DNA (pCMVβ), as described above.
Liposome:DNA (LD) complex mixtures (lipoplexes) were prepared for control experiments with a Liposome:DNA ratio of 3:1 (w/w), the optimal composition for transfection of ND7 cells.
Transfection in ND7 cells; ND7 cells were seeded in NGM (with 10% serum) at a density of approximately 4×10^4 cells per well, in a 24-well culture plate. After 24 h, cells were washed by brief exposure to NGM (serum free) and then treated with solutions containing LMD or LD complexes, prediluted with NGM (serum free) (final DNA concentration 2.5 μg/ml in all cases), for 1 h. Cells were then washed again and incubated for a further 48 h prior to processing for histochemical staining with X-gal. The number of cells stained blue were counted under an inverted microscope.

plasmid DNA (pCMVβ) = assay: gel retardation assay (DNA binding analysis)
Procedure: One microgram of pCMVβ was incubated with 0 μg (lane 2), 5 μg (lane 3), 10 μg (lane 4), 15 μg (lane 5), 20 μg (lane 6), 25 μg (lane 7) and 30 μg (lane 8) of BSA for 10 minutes at room temperature in 1× HBS. Samples were then analyzed on a 1% agarose gel for altered mobility.
When ratios of 0.5 (w/w) or greater were used, however, migration of both forms of pDNA was severely retarded.
C). The Polyomavirus protein Vp1 was much less efficient at preventing pDNA migration. pCMVβ (1 μg) was incubated with 2 μg (lane 2), 4 μg (lane 3), 6 μg (lane 4), 8 μg (lane 5), 16 μg (lane 6), 32 μg (lane 7) and 0 μg (lane 8) Vp1. Only ratios of 6 or higher (protein: pDNA, w/w) caused significant retardation of supercoiled pDNA (lane 6, lower band). Also, not until a ratio of 32 (w/w) was used was there any effect on relaxed pDNA (lane 7, upper band). In all gels lane 1 corresponds to 1 Kb DNA marker (BRL).
The purified peptides were reconstituted in sterile distilled H2O at 3 mg/mL. Peptide and pDNA were complexed in 20 μL HEPES buffered saline (137 mM NaCl, 5 mM KCl, 0.75 mM Na2HPO4, 19 mM HEPES, pH 7.4) for 20 minutes at room temperature. Peptide: pDNA complexes were subsequently analyzed by agarose gel electrophoresis (1%). Control incubations for general macromolecular pDNA interactions were performed with varying amounts of molecular biology grade purified bovine serum albumin (Sigma).
Varying amounts of purified peptide were incubated at room temperature in HBS for approximately 10 minutes and then analyzed by agarose gel electrophoresis. Without the addition of peptide, supercoiled and relaxed circular plasmid DNA (pDNA) migrated in the expected manner (FIG. 1, lane 8).

ND7 cells [2] = assay: β-galactosidase reporter gene assay, transfection of undifferentiated ND7 cells; format: cell-based, rat/mouse; conditions: peptide with cationic liposome, pCMVβ:liposome 1:3 w/w
Procedure: ND7 cells were seeded at a density of 5 ×10^4 cells/well in 24 well culture dishes 24 hrs prior to transfection. Immediately prior to transfection, cells were washed in serum-free media. Complexes were formed by incubating pCMVβ with Mu1 prior to the addition of the cationic liposome DC-Chol/DOPE. In each case 1 μg pCMVβ was complexed with 0.6, 6, 12, and 21 μg Mu1 peptide. Each of these combinations was then complexed with 3, 4 and 6 μg DC-Chol/DOPE. ND7 cells were exposed to transfection complexes for 2 hours then maintained at 37° C., 5% CO2 for another 24 hrs before being harvested and processed for β-galactosidase enzyme assay. Numbers represent means±SD, n=3.
pCMVβ plasmid DNA was complexed to various amounts of polycationic peptide and then mixed with cationic liposome at a ratio of 1:3 (pCMVβ:liposome; w/w). After being washed briefly in serum free media, ND7 cells were exposed to the […] complexes for two hours and then returned to serum containing media Twenty-four hours later the cells were harvested and processed for β-galactosidase enzyme assay. Each condition was performed in triplicate and each experiment replicated three times. Numbers represent means±SD.
ND7s are a well-characterized cell line derived from the fusion of a neuroblastoma N18Tg2) with neonatal rat sensory neurons ^28. The cell line was maintained in normal growth media (NGM) (Leibovitz's L-15 media (BRL) enriched with 10% Fetal bovine serum (BRL), 4 g/L glucose, 4 g/L sodium bicarbonate (BRL), 100 IU/mL penicillin/streptomycin (BRL)) at 37° C. and 5% CO2. The cells were plated onto 24 well plates (Costar) at a density that produced 70% confluence after 24 hours.
Since initial experiments determined that the presence of fetal bovine serum inhibited transfection of ND7 cells serum-free differentiation media was used for all transfections. Various amounts of DNA and liposome were placed in the bottom of a 7 mL sterile Bijou container (Bibby Sterilin Ltd., Staffordshire, U.K.), but not in contact with each other.
DNA and liposomes were combined by the addition of 400 μL serum-free differentiation media and gentle shaking. The DNA: liposome mixture was incubated at room temperature for 20 to 30 minutes before being applied to the cells. The DNA/liposome mixture was then applied to the cells and incubated at 37° C., 5% CO2 for 2 hours after which this media was replaced with complete media Twenty four to 48 hours later the cells were fixed and processed for X-gal histochemistry as described ^31 or harvested for β-galactosidase enzyme assays (Promega Corp.).
Transfection complexes including the test peptides were generated in the following manner. Various amounts of peptide was placed in the bottom of sterile polystyrene containers alongside, but not in contact with 1 μg·pCMVβ and mixed by adding 400 μl serum free NGM media The complexes were incubated at room temperature for 10 minutes after which DC-Chol/DOPE was added. The pDNA/peptide/liposome complex was further incubated at room temperature for 20 minutes and then administered to cells as above.
We examined the ability of Mu1 and Vp1 to enhance the transfection of a neuronal cell line by cationic liposomes using a β-Galactosidase reporter gene assay. ND7 cells were transfected with pCMVβ complexed to varying amounts of peptide and DC-Chol/DOPE. We have previously shown that the cationic liposome DC-Chol/DOPE is capable of efficiently transfecting the neuronally derived ND7 cell line ^31. […] Temporally, maximal levels of transgene expression are obtained between 48-60 hours post transfection. Therefore, in order to maximize the chance of detecting improvements in transfection we performed all our assays within 12-20 hours of transfection at a time when levels of reporter gene expression were lower. Previously we found a pDNA: liposome ratio of 1:3 (w/w) optimal for transfections in ND7 cells ^31. […]

[3] = charge ratios worked out from the sequence; format: physicochemical
Excerpt: Mu1 is a polycationic peptide comprised of 19 amino acids associated with the core complex of Adenovirus (Table 1) ^27, 32. We compared the DNA binding capacity of Mu1 with the mouse polyomavirus major capsid protein Vp1 by interaction with plasmid DNA in a gel retardation assay. Vp1 is a 19 amino acid peptide that contains a nuclear localization signal ^26 and contains fewer positively charged amino acids than Mu1. It was therefore predicted to have a lower DNA binding capacity.
The success of non-viral gene delivery vehicles as viable alternatives to virus vector-based systems is dependent on the development of complexes with higher and longer lasting transfection efficiencies. Since the initial identification of cationic liposomes as vehicles for the transfer of genetic material into cells there has been a large push to develop better cationic liposome formulations ^5, 7. Most attempts at improving cationic liposomes have been based on structural modifications to the molecule itself ^30. Novel formulations have been developed which have improved transfection efficiencies ^30. However, particular cell types behave differently in regards to cationic liposomal transfection. For example, we found the polypeptide Mu1 better at enhancing cationic liposome mediated transfection than Vp1. This was probably due to Mu1's greater charge ratio. While both peptides are approximately the same molecular weight, the overall charge ratio of Mu1 was more than twice that of Vp1 (Table 1). […] While a small shift in pDNA mobility was detected when 0.25 μg Mu1 was complexed to 1 μg pCMVβ, almost all of the plasmid was retained near the loading well following addition of 0.5 μg Mu1 (FIG. 1). A 0.5/1.0 (w/w) ratio of Mu1 to pCMVβ corresponds to a 1000/1 molar ratio. Each molecule of Mu1 contains 12 residues that could potentially carry a positive charge. The theoretical charge ratio of Mu1 to pCMVβ would then be 1.6 (12000 Mu1 cations to 7500 pCMVβ anions).

HeLa cells = assay: β-galactosidase assay, alternative cationic peptides in HeLa cells; format: cell-based, human; conditions: DC-Chol:DOPE liposome:peptide:DNA 12:0.6:1, 30 min, DNA 1.0 μg/ml
Procedure: In order to examine the effects of various alternative cationic peptides on transfection activities, a series of liposome:cationic peptide:DNA complexes were prepared and their relative transfection abilities analysed in vitro. The peptides used were poly-lysine hydrochloride (average molecular weight 3970, Sigma), poly arginine hydrochloride (average molecular weight 11800, Sigma) a peptide derived from protein V, pV (p5, sequence shown below), a peptide analogue of Mu1 (V, sequence shown below) and Mu1 peptide itself. The p5 peptide and V peptide were synthesized using the same solid-phase peptide synthesis methodology as was used to prepare Mu1 peptide.
Each peptide was combined with cationic liposome (DC-Chol:DOPE 3:2 m/m) and DNA (pCMVβ) in the liposome:peptide:DNA ratio of 12:0.6:1 (w/w/w) as described in Example 4. The transfection activities were examined using HeLa cells (human epithelial cells). The cells were seeded at an approximate density of 5×10^4 per well in a 24-well culture plate in DMEM supplemented with 10% FCS and grown for 24 h in the presence of 5% CO2 at 37° C. Cells were washed by brief exposure to DMEM and then treated with solutions containing LMD or LD complexes, prediluted with OPTIMEM (Gibco) (final DNA concentration 1.0 μg/ml in all cases), for 30 min. Cells were then washed again and incubated for a further 48 h in DMEM supplemented with 10% FCS prior to harvesting. The level of β-galactosidase enzyme activity was determined with a standard assay kit (chemiluminescent, Roche).

For `CC(C)CCCC(C)C1CCC2C3CC=C4CC(OC(=O)NCCNCCCNCCN)CCC4(C)C3CCC12C` (stereo not drawn) [B198], the “rank order in transfection efficiency, corresponding LD systems” value (ND7 cells [1]) was “B198>DC-Chol>B232”.

In the case of `CC(C)CCC[C@@H](C)[C@H]1CC[C@H]2[C@@H]3CC=C4C[C@@H](OC(=O)NCCN(C)C)CC[C@]4(C)[C@H]3CC[C@]12C` [DC-Chol, 3β[N-(N′,N′-dimethylaminoethane)carbamoyl] cholesterol, reference compound], the “rank order in transfection efficiency, corresponding LD systems” value (ND7 cells [1]) is reported as “B198>DC-Chol>B232”.

With “NH2—Met—Ala—Pro—Lys—Arg—Lys—Ser—Gly—Val—Ser—Lys—Cys—Glu—Thr—Lys—Cys—Thr—Pro—Pro—OH (H-MAPKRKSGVSKCETKCTPP-OH; cysteine pairing not given here) [Vp1, 19 amino acid peptide of mouse polyomavirus major capsid protein Vp1, contains a nuclear localization signal, reference compound]” the “ratio protein:pDNA at which there was first any effect on relaxed pDNA” value (plasmid DNA (pCMVβ); 1 μg pCMVβ, 1% agarose gel) was 32 w/w, the “ratio protein:pDNA causing significant retardation of supercoiled pDNA” value (plasmid DNA (pCMVβ); 1 μg pCMVβ, 1% agarose gel) was ≥ 6 w/w and the “effect on electrophoretic mobility of plasmid DNA” value (plasmid DNA (pCMVβ); pDNA:protein ratios up to 1:8 (w/w)) was “no effect on the electrophoretic mobility”. The “improvement on transfection efficiency” value (ND7 cells [2]) was “no improvement on transfection efficiency” and the Charge/AA ratio [3] was 0.26.

In the case of “RPRRRATTRRRTTTGTRRRRRRR [p5, peptide derived from protein V, pV]”, the “transfection activity compared to poly lysine and poly arginine complexes” value (HeLa cells) is reported as “excellent transfection activity”.

For “VRRVHHRRRRVSHRRVRGG [peptide analogue of Mu1]”, the “transfection activity compared to poly lysine and poly arginine complexes” value (HeLa cells) was “excellent transfection activity”.
